For 2 compounds, MIC and Activity results are on record in ChEMBL document CHEMBL4834418, “Pentaminomycins F and G, Nonribosomal Peptides Containing 2-Pyridylalanine” (2021).

≈ marks a conversion by molar mass, not a printed value. Calls of active or inactive are those of the source. Starred links: 1 amine or outer side, 2 acyl side, 3 side chain; linkers in the order of their positions; H or OH if unused. Non-standard residues stand in square brackets, D forms with d. Residues, ends and D or L forms follow the SMILES beside them. X1 = N=C(N)N(O)CCC[C@H](N[*:1])C(=O)[*:2]

In general, MIC refers to the smallest concentration in the dilution series that meets the test's criterion for growth inhibition. A higher MIC goes with a need for much substance.

Experiment [1] relates to Acinetobacter baumannii. The experiment can be described thus: Antibacterial activity against Acinetobacter baumannii MB5973 measured after overnight incubation. Format: functional.
Experiment [2] relates to Escherichia coli. Briefly: Antibacterial activity against Escherichia coli ATCC 25922 measured after overnight incubation. Format: functional, organism-based.
The test system of experiment [3] is Klebsiella pneumoniae. Briefly: Antibacterial activity against Klebsiella pneumoniae ATCC 700603 measured after overnight incubation. Type of experiment: functional, organism-based.
Experiment [4] relates to Pseudomonas aeruginosa. Briefly: Antibacterial activity against Pseudomonas aeruginosa MB5919 measured after overnight incubation. Type of experiment: functional, organism-based.

On to `CC(C)C[C@@H]1NC(=O)[C@@H](CC(C)C)NC(=O)[C@H](CCCN(O)C(=N)N)NC(=O)[C@H](Cc2c[nH]c3ccccc23)NC(=O)[C@@H](C(C)C)NC1=O` (cyclo(L[dV]W[X1][dL])), for which the lowest concentration to inhibit growth in experiment [1] (MIC) was 16 µg/mL (≈ 23.4 µM). Moreover, the result in experiment [2], in experiment [3] and in experiment [4] was inactive.

`CC(C)C[C@@H]1NC(=O)[C@@H](Cc2ccccc2)NC(=O)[C@H](CCCN(O)C(=N)N)NC(=O)[C@H](Cc2c[nH]c3ccccc23)NC(=O)[C@@H](C(C)C)NC1=O`: the MIC in experiment [1] turned out to be 16 µg/mL (≈ 22.3 µM). For the same compound, the result in experiment [2], in experiment [3] and in experiment [4] was inactive.
